Experiments:
HCC1806 cells = experiment: HCC1806 cell activity test (CyQUANT); type: cell-based; details: Homo sapiens, 168 h, 7 days, read-out: Antiproliferative activity (IC50) HCC1806
Protocol: Experimental materials: RPMI-1640 medium, fetal bovine serum, penicillin/streptomycin antibiotics were purchased from Vicente. CyQUANT Cell Proliferation Assays (Cell proliferation assay kit) reagents were purchased from ThermoFisher. The HCC1806 cell line was purchased from Cobioer Biosciences Co., Ltd. Nivo Multilabel Analyzer (PerkinElmer).
Experimental method: HCC1806 cells were seeded in a white 96-well plate, 80 μL of cell suspension per well, which contained 3000 HCC1806 cells. The cell plate was incubated overnight in a carbon dioxide incubator. The compounds to be tested were diluted 5-fold to the 9th concentration with a row gun, that is, from 10 mM to 25.6 nM, and a double-replicate well experiment was set up. 78 μL of medium was added to the middle plate, and then transferred 2 μL per well of the gradient diluted compound to the middle plate according to the corresponding position, mixed well and transferred 20 μL per well to the cell plate. […] After reaching the incubation time, the cell supernatant was removed, and the cell plate was placed in a −80° C. refrigerator for 1 hour, after which 100 μL of Cyquant reagent was added to each well, and a multi-label analyzer was used for reading. Another cell plate was prepared, and the signal value was read as the maximum value (Max value in the equation below) on the day of drug addition to participate in data analysis. […]

CDK9/CyclinT1 = biological target: T1, CDK9/CyclinT1 (Homo sapiens, UniProt P50750); experiment: CDK9/CyclinT1 kinase activity assay (ADP-Glo); type: biochemical; details: 100 μM ATP, 25° C., 60 minutes; read-out: Enzyme activity data (IC50) CDK9/CyclinT1
T1 construct: purchased Carna
Protocol: Experimental materials: CDK9/CyclinT1 kinase was purchased from Carna, the ADP-Glo detection kit was purchased from Promega, the PKDTide substrate and kinase reaction buffer were purchased from Signalchem. Nivo Multilabel Analyzer (PerkinElmer).
Experimental method: Kinase buffer dilution enzyme in the kit, substrate, adenosine triphosphate and inhibitor were used. […] The reaction system was placed at 25° C. and reacted for 60 minutes. After the reaction was complete, 5 μL of ADP-Glo reagent was added to each well, and the reaction was continued at 25° C. for 40 minutes. At the end of the reaction, 10 μL of kinase detection reagent was added to each well. After the reaction was continued at 25° C. for 30 minutes, the chemiluminescence was read by a multi-label analyzer with an integration time of 0.5 seconds.
(§1) Table 1 provides the enzymatic inhibitory activities of the compounds of the present invention on CDK2/CyclinA2, CDK2/CyclinE1, CDK4/CyclinD1, CDK6/CyclinD1, CDK9/CyclinT1.

CDK4/CyclinD1 = biological target: T2, CDK4/CyclinD1 (Homo sapiens, UniProt P11802); experiment: CDK4/CyclinD1 kinase activity test (LANCE Ultra TR-FRET); type: biochemical; details: 350 μM ATP, 25° C., 120 minutes; read-out: Enzyme activity data (IC50) CDK4/cyclinD1
T2 construct: purchased Invitrogen
Protocol: Experimental materials: CDK4/CyclinD1 kinase was purchased from Invitrogen, reaction substrate LANCE Ultra ULight™-4E-BP-1 (Thr37146) Peptide and EU-ANTI-P-4EBP1 (THR37/46) were purchased from PerkinElmer. Nivo Multilabel Analyzer (PerkinElmer).
(§2) Experimental method: preparation of kinase buffer: The components of the buffer include: 50 mM of hydroxyethylpiperazine […] solution with pH 7.5, 1 mM of EDTA, 10 mM of magnesium chloride, 0.01% lauryl polyoxyethylene ether (Brij-35), 2 mM of enzyme dithiothreitol, kinase buffer dilution enzyme, substrate LANCE Ultra ULight™-4E-BP-1 (Thr37146) Peptide, adenosine triphosphate and inhibitor. […] The reaction system was continued at 25° C. for 120 minutes. After the reaction was complete, a mixture of 5 μL of EDTA and 2× LANCE™ Detection Buffer (1:1) was added to each well, and reacted at 25° C. for 5 minutes, after the reaction was complete, 5 μL of LANCE Ultra Eu-anti-P-4E-BP1(Thr37MS) (4 nM) was added to each well, and reacted at 25° C. for 60 minutes, the reaction signal was detected by Nivo instrument according to the principle of time-resolved fluorescence resonance energy transfer.
as §1

MDA-MB-468 cells = experiment: MDA-MB-468 cell activity test (CellTiter-Glo); type: cell-based
Protocol: Experimental materials: L15 medium, fetal bovine serum, penicillin/streptomycin antibiotics were purchased from Vicente. CellTiter-Glo (chemiluminescence detection reagent for cell viability) reagent was purchased from Promega. The MDA-MB-468 cell line was purchased from Cobioer Biosciences Co., Ltd. Nivo Multilabel Analyzer (PerkinElmer).
Experimental method: MDA-MB-468 cells were seeded in a white 96-well plate, 80 μL of cell suspension per well, which contained 1000 MDA-MB-468 cells. The cell plate was incubated overnight in a carbon dioxide incubator. The compounds to be tested were diluted 5-fold to the 9th concentration with a row gun, that is, from 10 mM to 25.6 nM, and a double-replicate well experiment was set up. 78 μL of medium was added to the middle plate, and then transferred 2 μL per well of the gradient diluted compound to the middle plate according to the corresponding position, mixed well and transferred 20 μL per well to the cell plate. The concentration of compound transferred to the cell plate ranged from 50 μM to 0.128 nM. The cell plate was incubated in a carbon dioxide incubator for 7 days. Another cell plate was prepared, and the signal value was read as the maximum value (Max value in the equation below) on the day of drug addition to participate in data analysis. 25 μL of chemiluminescence detection reagent for cell viability was added to each well of the cell plate, and incubated at room temperature for 10 minutes to stabilize the luminescence signal. A multi-label analyzer was used for reading.
Data analysis: Using the equation (Sample−Min)/(Max−Min)×100% to convert the original data into inhibition rate, the IC50 value can be obtained by curve fitting with four parameters (obtained by the mode of log(inhibitor) vs. response—Variable slope in GraphPad Prism).

CDK6/CyclinD1 = biological target: T3, CDK6/CyclinD1 (Homo sapiens, UniProt Q00534); experiment: CDK6/CyclinD1 kinase activity test (LANCE Ultra TR-FRET); type: biochemical; details: 250 μM ATP, 25° C., 120 minutes; read-out: Enzyme activity data (IC50) CDK6/cyclinD1
T3 construct: purchased Carna
Protocol: Experimental materials: CDK6/CyclinD1 kinase was purchased from Carna, reaction substrate LANCE Ultra ULight™-4E-BP-1 (Thr37146) Peptide and EU-ANTI-P-4EBP1 (THR37/46) were purchased from PerkinElmer. Nivo Multilabel Analyzer (PerkinElmer).
as §2, §1

T2 sequence (P11802 whole entry): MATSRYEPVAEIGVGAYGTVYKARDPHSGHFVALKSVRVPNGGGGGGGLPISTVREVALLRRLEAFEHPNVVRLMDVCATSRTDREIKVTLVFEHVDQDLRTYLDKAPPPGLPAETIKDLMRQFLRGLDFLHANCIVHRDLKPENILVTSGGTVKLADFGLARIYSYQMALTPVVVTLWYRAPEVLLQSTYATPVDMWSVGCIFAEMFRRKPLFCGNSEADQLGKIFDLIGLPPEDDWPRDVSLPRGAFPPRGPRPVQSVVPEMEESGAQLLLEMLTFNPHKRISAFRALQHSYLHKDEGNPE
T2 sequence (P24385 whole entry partner): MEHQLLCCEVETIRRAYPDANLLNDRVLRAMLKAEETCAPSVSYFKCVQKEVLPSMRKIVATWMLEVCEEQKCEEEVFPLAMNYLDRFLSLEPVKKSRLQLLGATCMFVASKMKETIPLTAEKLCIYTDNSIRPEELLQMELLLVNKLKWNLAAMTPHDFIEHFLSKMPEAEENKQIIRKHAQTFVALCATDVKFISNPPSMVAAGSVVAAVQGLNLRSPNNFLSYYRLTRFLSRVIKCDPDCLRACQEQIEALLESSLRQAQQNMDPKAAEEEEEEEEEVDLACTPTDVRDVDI
T3 sequence (Q00534 whole entry): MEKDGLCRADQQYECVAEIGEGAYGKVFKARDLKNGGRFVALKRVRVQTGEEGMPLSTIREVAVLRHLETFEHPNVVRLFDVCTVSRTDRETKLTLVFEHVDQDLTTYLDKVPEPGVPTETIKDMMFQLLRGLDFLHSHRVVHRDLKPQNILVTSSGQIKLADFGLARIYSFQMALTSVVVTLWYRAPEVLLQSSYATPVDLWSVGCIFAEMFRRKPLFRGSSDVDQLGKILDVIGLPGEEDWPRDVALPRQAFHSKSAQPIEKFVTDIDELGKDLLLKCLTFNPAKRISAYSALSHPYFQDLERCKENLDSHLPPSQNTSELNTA
T3 sequence (P24385 whole entry partner): as the sequence (P24385 whole entry partner) above
T1 sequence (P50750 whole entry): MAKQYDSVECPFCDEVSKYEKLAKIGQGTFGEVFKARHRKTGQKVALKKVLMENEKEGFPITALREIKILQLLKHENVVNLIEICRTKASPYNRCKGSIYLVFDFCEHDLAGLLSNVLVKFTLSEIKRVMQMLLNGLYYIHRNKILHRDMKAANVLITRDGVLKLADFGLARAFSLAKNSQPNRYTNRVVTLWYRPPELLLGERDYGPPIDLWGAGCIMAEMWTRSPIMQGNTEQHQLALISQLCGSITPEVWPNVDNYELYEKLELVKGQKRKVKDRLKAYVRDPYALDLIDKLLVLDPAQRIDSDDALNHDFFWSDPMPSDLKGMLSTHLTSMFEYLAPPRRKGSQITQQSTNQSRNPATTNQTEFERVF
T1 sequence (O60563 whole entry partner): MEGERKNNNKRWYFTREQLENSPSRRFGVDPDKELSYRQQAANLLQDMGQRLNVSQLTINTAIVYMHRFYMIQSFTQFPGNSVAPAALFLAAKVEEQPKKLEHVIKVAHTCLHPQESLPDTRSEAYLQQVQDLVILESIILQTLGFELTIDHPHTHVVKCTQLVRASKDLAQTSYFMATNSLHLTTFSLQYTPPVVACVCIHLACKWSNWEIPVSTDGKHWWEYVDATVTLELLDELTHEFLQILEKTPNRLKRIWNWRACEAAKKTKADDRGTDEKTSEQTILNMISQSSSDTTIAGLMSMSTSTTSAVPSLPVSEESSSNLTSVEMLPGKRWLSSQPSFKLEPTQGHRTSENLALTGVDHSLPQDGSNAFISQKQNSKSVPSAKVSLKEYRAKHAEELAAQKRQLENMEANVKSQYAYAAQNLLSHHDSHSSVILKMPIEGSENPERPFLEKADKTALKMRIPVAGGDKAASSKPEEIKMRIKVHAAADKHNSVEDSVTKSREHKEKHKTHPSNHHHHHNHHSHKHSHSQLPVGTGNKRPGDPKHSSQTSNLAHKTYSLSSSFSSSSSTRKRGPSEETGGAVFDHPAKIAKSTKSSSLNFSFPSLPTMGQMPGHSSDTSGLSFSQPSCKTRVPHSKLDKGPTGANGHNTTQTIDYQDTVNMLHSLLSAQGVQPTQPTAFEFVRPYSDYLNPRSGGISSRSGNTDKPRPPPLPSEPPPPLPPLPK

IC50 (HCC1806 cells): 155 nM
IC50 (CDK9/CyclinT1): 110 nM
IC50 (CDK4/CyclinD1): 5.9 nM
IC50 (MDA-MB-468 cells; Homo sapiens, 168 h, MDA-MB-468 cells (Rb-negative), 7 days, read-out: Antiproliferative activity (IC50) MDA-MB-468): 640 nM
IC50 (CDK6/CyclinD1): 1.5 nM
SMILES: C[C@@]1(O)CCC[C@H]1N1C(=O)CCc2cnc(NC3CCN(S(C)(=O)=O)CC3)nc21 [Compound 1A]
Selectivity ratio(MDA-MB-468/HCC1806) (MDA-MB-468 cells; ratio of antiproliferative IC50, MDA-MB-468/HCC1806): 4.1

Reference: patent publication US12679837B2, “Aminopyrimidine compound as CDK2/4/6 triple inhibitor” (CISEN PHARMACEUTICAL CO., LTD, priority 2019, dated 2026)
